Results reported in patent US7189524B1, “Receptor ligands and methods of modulating receptors” (Amgen, Inc., priority 2002, dated 2007).

What was measured:
[1] = test system: human adipocytes; assay: Inhibition of forskolin-stimulated lipolysis of human adipocytes (glycerol release); format: cell-based; details: Adipocyte, 0.5 μM Forskolin, 16 hours, glycerol concentration, read-out: EC50 (anti-lipolysis)
[2] = target: T1, TGR4b (Homo sapiens, UniProt Q8TDS4); assay: Aequorin assay for intracellular calcium, CHO cells transfected with TGR4b; format: cell-based; details: summary of Table 1
T1 construct: expressed in transfected cells; host or cells: CHO cells, transient
Procedure: (§1) Aequorin catalyses the oxidation of coelenterazine, but only in the presence of Ca^2+ ions and thus can be used as an indicator of intracellular calcium levels. Briefly, the assays were performed using the following methodology.
(§2) CHO cells were transiently transfected with expression plasmids encoding TGR4b or TGR183 together with a plasmid encoding mitochondria-targeting apoaequorin. The plasmids were co-transfected with chimeric G protein Gαqi9, which has the C-terminal 9 amino acids from the Gαq protein replaced with the C-terminal 9 amino acids form the Gαi protein. Cells were harvested 24 hr later and loaded with coelenterazine for 2 hr at 37 C. Aequorin assay was performed on MicroLumat 96 luminometer (Perkin Elmer).

[3] = target: TGR183 (Homo sapiens, UniProt Q9BXC0); details: concentration of 50 μM, FIG. 3
Procedure: as §1, §2

T1 sequence (Q8TDS4 whole entry): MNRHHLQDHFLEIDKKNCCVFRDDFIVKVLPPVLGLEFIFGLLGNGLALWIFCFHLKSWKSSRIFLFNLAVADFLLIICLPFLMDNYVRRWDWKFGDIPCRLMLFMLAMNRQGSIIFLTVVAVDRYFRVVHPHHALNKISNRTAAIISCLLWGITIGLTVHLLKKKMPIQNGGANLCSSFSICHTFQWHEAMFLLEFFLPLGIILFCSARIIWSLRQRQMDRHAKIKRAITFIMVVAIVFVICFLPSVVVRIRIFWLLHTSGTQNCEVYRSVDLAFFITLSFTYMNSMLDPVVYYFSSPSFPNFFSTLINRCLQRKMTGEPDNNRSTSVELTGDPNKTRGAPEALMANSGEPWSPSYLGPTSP
Sequence of TGR183 (Q9BXC0 whole entry): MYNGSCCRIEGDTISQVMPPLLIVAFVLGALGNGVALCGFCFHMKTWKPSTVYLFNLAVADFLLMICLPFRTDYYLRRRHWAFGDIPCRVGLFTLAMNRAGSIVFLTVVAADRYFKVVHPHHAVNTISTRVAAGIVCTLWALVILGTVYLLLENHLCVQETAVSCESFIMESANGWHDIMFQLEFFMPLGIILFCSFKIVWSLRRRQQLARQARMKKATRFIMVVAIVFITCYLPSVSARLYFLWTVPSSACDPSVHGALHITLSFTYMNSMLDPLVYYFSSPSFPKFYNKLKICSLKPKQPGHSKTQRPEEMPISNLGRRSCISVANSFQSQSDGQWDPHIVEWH

EC50 [1] [nM]	SMILES	activity on TGR4b in words (binding and activity assays) [2]	TGR183-mediated increase in intracellular calcium [3]
6500	O=C(O)c1cnccn1 [2-pyrazinecarboxylic acid]	also active in binding and activity assays	
770	Cl.O=C(O)Cc1cccnc1 [3-pyridineacetic acid HCl]	also exhibits activity	
	O=C(O)c1cncc(F)c1 [5-fluoro nicotinic acid]	much lower potency	
	NC(=O)c1cccnc1 [Nicotinamide]	completely inactive	
2800	O=C(O)c1ccnnc1 [Pyridazine 4-carboxylic acid]	also active in binding and activity assays	
150	Cl.O=C(Cl)c1cccnc1 [nicotinoyl chloride HCl]	agonist and binding activity similar to that of nicotinic acid	

SMILES	EC50 [1] [nM]	activity on TGR4b in words (binding and activity assays) [2]	TGR183-mediated increase in intracellular calcium [3]
Cc1cnc(C(=O)O)c[n+]1[O-]	6000		
O=C(O)c1cccnc1 [nicotinic acid, 3-pyridinecarboxylic acid]	62		stimulated a TGR183-mediated increase in intracellular calcium
